According to ChEMBL document CHEMBL4052696, “Varic acid analogues from fungus as PTP1B inhibitors: Biological evaluation and structure-activity relationships” (Bioorg Med Chem Lett, 2017):

How the values were obtained:
[1] = target: T1, Tyrosine-protein phosphatase non-receptor type 1 (Homo sapiens, UniProt P18031); experiment: Inhibition of PTP1B (unknown origin) using p-nitrophenyl phosphate substrate incubated for 30 mins
T1 sequence (P18031 whole entry): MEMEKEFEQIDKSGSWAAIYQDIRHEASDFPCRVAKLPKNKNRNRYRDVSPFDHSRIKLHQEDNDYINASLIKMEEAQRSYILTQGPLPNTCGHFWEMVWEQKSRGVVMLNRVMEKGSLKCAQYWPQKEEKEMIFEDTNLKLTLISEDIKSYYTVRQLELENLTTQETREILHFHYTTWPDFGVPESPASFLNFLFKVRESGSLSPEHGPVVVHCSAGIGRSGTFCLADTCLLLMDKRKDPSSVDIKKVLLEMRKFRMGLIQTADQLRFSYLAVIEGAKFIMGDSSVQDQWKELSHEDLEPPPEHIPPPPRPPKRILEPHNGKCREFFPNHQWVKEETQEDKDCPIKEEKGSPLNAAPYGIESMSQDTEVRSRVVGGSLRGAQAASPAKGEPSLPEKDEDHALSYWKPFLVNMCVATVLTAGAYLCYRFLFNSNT

[2] = target: T2, Tyrosine-protein phosphatase non-receptor type 11 (Homo sapiens, UniProt Q06124); experiment: Inhibition of SHP2 (unknown origin) using p-nitrophenyl phosphate substrate incubated for 30 mins
T2 sequence (Q06124 whole entry): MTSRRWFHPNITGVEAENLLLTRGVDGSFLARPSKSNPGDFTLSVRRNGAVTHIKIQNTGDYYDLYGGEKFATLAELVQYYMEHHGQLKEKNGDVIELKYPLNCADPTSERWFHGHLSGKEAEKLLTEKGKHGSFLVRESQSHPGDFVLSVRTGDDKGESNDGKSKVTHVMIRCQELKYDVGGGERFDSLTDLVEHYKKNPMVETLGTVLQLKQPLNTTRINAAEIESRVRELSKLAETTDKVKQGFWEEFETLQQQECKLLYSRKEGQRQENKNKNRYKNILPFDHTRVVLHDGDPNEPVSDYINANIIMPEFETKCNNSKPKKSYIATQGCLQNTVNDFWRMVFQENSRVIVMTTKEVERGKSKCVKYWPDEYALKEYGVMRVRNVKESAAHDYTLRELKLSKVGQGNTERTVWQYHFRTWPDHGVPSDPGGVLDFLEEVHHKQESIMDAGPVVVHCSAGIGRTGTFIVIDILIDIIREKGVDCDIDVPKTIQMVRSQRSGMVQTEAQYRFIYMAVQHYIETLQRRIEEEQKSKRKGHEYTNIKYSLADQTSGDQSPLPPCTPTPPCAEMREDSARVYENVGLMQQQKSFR

[3] = target: Receptor-type tyrosine-protein phosphatase F (Homo sapiens, UniProt P10586); experiment: Inhibition of PTPLAR (unknown origin) using p-nitrophenyl phosphate substrate incubated for 30 mins
Receptor-type tyrosine-protein phosphatase F, sequence (P10586 whole entry): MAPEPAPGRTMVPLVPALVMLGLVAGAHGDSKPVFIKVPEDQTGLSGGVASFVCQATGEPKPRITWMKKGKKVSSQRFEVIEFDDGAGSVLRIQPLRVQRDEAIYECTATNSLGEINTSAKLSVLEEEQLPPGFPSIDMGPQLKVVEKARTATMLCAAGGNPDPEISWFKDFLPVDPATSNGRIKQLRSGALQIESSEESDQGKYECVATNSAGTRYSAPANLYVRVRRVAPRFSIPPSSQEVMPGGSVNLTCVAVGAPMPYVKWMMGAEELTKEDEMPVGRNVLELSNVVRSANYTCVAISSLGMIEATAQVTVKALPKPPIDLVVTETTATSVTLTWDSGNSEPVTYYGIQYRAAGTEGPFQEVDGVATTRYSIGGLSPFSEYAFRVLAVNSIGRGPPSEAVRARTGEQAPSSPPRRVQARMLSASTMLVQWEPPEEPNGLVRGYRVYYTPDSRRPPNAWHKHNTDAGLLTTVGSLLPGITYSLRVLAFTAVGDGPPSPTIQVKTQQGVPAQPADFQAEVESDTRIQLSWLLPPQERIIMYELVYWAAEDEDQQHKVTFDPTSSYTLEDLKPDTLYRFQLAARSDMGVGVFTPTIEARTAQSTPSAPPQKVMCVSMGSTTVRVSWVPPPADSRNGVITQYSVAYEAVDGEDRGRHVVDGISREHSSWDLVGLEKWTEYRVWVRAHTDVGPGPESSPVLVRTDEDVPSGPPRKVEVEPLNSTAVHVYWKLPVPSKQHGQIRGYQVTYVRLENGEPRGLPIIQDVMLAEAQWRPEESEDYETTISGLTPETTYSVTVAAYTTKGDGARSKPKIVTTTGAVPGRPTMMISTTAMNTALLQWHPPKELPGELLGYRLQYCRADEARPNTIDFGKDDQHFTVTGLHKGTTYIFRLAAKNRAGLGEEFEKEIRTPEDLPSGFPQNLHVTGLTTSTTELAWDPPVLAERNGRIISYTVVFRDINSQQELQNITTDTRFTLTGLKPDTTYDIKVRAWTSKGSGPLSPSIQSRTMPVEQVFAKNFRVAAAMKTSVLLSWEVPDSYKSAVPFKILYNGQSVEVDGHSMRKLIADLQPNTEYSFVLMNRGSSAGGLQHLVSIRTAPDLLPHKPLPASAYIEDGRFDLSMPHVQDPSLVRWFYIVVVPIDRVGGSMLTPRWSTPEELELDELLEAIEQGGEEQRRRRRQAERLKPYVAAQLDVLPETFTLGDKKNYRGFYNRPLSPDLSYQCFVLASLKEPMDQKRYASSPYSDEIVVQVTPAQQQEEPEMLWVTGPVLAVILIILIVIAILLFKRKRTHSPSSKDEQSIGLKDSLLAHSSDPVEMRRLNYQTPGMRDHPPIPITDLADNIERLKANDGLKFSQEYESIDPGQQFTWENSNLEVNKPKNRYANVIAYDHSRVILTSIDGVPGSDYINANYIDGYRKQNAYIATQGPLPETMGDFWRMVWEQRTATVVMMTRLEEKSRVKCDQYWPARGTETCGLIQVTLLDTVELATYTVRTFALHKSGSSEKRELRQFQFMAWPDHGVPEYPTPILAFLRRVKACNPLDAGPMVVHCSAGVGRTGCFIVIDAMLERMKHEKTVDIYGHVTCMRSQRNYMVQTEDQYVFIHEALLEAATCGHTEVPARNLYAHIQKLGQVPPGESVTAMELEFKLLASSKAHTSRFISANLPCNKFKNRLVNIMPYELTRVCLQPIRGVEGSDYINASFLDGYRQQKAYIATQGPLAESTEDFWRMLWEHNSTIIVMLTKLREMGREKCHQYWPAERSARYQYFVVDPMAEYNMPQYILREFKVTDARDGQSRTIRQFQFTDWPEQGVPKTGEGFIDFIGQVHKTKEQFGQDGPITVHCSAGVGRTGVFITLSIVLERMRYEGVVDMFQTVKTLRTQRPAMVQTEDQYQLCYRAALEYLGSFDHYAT

[4] = target: T3, Tyrosine-protein phosphatase non-receptor type 2 (Homo sapiens, UniProt P17706); experiment: Inhibition of TCPTP (unknown origin) using p-nitrophenyl phosphate substrate incubated for 30 mins
T3 sequence (P17706 whole entry): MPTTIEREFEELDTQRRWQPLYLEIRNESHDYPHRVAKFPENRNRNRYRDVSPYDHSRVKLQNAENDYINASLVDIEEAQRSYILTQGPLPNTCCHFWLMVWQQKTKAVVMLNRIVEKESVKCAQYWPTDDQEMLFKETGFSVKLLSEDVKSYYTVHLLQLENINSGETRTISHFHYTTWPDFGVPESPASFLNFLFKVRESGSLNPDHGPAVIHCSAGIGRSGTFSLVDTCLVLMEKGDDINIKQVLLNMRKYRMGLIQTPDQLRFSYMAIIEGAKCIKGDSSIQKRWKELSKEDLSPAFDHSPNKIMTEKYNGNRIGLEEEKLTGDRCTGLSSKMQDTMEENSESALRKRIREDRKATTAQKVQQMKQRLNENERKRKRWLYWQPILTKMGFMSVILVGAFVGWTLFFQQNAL

Rattus norvegicus [5] = experiment: Toxicity in normal Wistar rat assessed as induction of hypoglycemia at 10 mg/kg, ip dosed 30 mins before insulin injection and measured 30 mins post insulin injection by glucose-oxidase assay; type: organism-based; conditions: in vivo, 0.5 h
Rattus norvegicus [6] = experiment: Toxicity in type 2 diabetic Wistar rat assessed as induction of hypoglycemia at 10 mg/kg, ip dosed 30 mins before insulin injection and measured 30 mins post insulin injection by glucose-oxidase assay; type: organism-based; conditions: in vivo, 0.5 h

SMILES	IC50 [1] [µM]	IC50 [2] [µM]	IC50 [3] [µM]	IC50 [4] [µM]	Activity (Rattus norvegicus [5])	Activity (Rattus norvegicus [6])
CCCc1cc(OC(=O)c2c(O)cc(O)cc2CCC)cc(O)c1C(=O)O	0.51	> 20	> 20	> 20		
CCCc1cc(OC(=O)c2c(O)cc(OC(=O)c3c(O)cc(O)cc3CCC)cc2CCC)cc(O)c1C(=O)O	0.17	2.73	> 20	17.7	Non-Toxic	Non-Toxic
CCCc1cc(OC)cc(OC)c1C(=O)O	> 20	> 20	> 20	> 20		
CCCc1cc(O)cc(OC(=O)c2c(O)cc(O)cc2CCC)c1	0.72	15	> 20	> 20		
CCC/C=C/C=C/CCc1cc(O)cc(O)c1C(=O)O	4.27	0.18	> 20	4.74		
CCCc1cc(O)cc(O)c1C(=O)O	1.58	12.6	> 20	> 20		
